Assay results reported in the NIST ThermoML archive (doi:10.1021/je050060q).

Test: xn = mol fraction of the nth substance listed
Conditions: 101.3 kPa, Liquid; for mass density: Pycnometric method

CCCCCCCCCCCCCCCC [hexadecane] + CCCCCC
Conditions	mass density [kg/m3]	speed of sound [m/s]
293.15 K, x2 = 0.1	768.1	1341
293.15 K, x2 = 0.2	762.36	1327
293.15 K, x2 = 0.3	756.02	1314
293.15 K, x2 = 0.4	748.67	1297
293.15 K, x2 = 0.5	740.14	1277
293.15 K, x2 = 0.6	729.79	1254
293.15 K, x2 = 0.7	717.46	1228
293.15 K, x2 = 0.8	702.3	1196
293.15 K, x2 = 0.9	683.23	1151
298.15 K, x2 = 0.1	764.7	1322
298.15 K, x2 = 0.2	758.88	1308
298.15 K, x2 = 0.3	752.56	1295
298.15 K, x2 = 0.4	745.03	1277
298.15 K, x2 = 0.5	736.52	1257
298.15 K, x2 = 0.6	726.08	1234
298.15 K, x2 = 0.7	713.68	1207
298.15 K, x2 = 0.8	698.4	1175
298.15 K, x2 = 0.9	679.04	1129
303.15 K, x2 = 0.1	761.25	1304
303.15 K, x2 = 0.2	755.4	1289
303.15 K, x2 = 0.3	749.09	1275
303.15 K, x2 = 0.4	741.49	1258
303.15 K, x2 = 0.5	732.9	1237
303.15 K, x2 = 0.6	722.32	1215
303.15 K, x2 = 0.7	709.86	1187
303.15 K, x2 = 0.8	694.47	1154
303.15 K, x2 = 0.9	674.8	1108
308.15 K, x2 = 0.1	757.78	1285
308.15 K, x2 = 0.2	751.9	1270
308.15 K, x2 = 0.3	745.61	1256
308.15 K, x2 = 0.4	737.93	1238
308.15 K, x2 = 0.5	729.25	1217
308.15 K, x2 = 0.6	718.63	1195
308.15 K, x2 = 0.7	706.03	1167
308.15 K, x2 = 0.8	690.5	1133
308.15 K, x2 = 0.9	670.53	1086
313.15 K, x2 = 0.1	754.31	1266
313.15 K, x2 = 0.2	748.41	1251
313.15 K, x2 = 0.3	741.92	1237
313.15 K, x2 = 0.4	734.37	1219
313.15 K, x2 = 0.5	725.59	1198
313.15 K, x2 = 0.6	714.88	1175
313.15 K, x2 = 0.7	702.18	1146
313.15 K, x2 = 0.8	686.49	1112
313.15 K, x2 = 0.9	666.22	1065
318.15 K, x2 = 0.1	750.84	1248
318.15 K, x2 = 0.2	744.91	1232
318.15 K, x2 = 0.3	738.42	1219
318.15 K, x2 = 0.4	730.8	1200
318.15 K, x2 = 0.5	721.92	1178
318.15 K, x2 = 0.6	711.12	1156
318.15 K, x2 = 0.7	698.3	1126
318.15 K, x2 = 0.8	682.45	1091
318.15 K, x2 = 0.9	661.87	1044
323.15 K, x2 = 0.1	747.36	1230
323.15 K, x2 = 0.2	741.4	1214
323.15 K, x2 = 0.3	734.92	1200
323.15 K, x2 = 0.4	727.21	1181
323.15 K, x2 = 0.5	718.23	1159
323.15 K, x2 = 0.6	707.34	1136
323.15 K, x2 = 0.7	694.38	1107
323.15 K, x2 = 0.8	678.36	1071
323.15 K, x2 = 0.9	657.47	1023
328.15 K, x2 = 0.1	743.88	1211
328.15 K, x2 = 0.2	737.89	1196
328.15 K, x2 = 0.3	731.41	1182
328.15 K, x2 = 0.4	723.62	1163
328.15 K, x2 = 0.5	714.52	1140
328.15 K, x2 = 0.6	703.55	1117
328.15 K, x2 = 0.7	690.44	1087
328.15 K, x2 = 0.8	674.25	1050
328.15 K, x2 = 0.9	653.04	1002
333.15 K, x2 = 0.1	740.37	1193
333.15 K, x2 = 0.2	734.36	1177
333.15 K, x2 = 0.3	727.88	1163
333.15 K, x2 = 0.4	720.01	1144
333.15 K, x2 = 0.5	710.8	1122
333.15 K, x2 = 0.6	699.74	1098
333.15 K, x2 = 0.7	686.47	1067
333.15 K, x2 = 0.8	670.09	1030
333.15 K, x2 = 0.9	648.56	981
338.15 K, x2 = 0.1	–	1176
338.15 K, x2 = 0.2	–	1160
338.15 K, x2 = 0.3	–	1145
338.15 K, x2 = 0.4	–	1126
338.15 K, x2 = 0.5	–	1103
338.15 K, x2 = 0.6	–	1079
338.15 K, x2 = 0.7	–	1048
338.15 K, x2 = 0.8	–	1010
338.15 K, x2 = 0.9	–	960
343.15 K, x2 = 0.1	–	1158
343.15 K, x2 = 0.2	–	1142
343.15 K, x2 = 0.3	–	1127
343.15 K, x2 = 0.4	–	1108
343.15 K, x2 = 0.5	–	1084
343.15 K, x2 = 0.6	–	1060
343.15 K, x2 = 0.7	–	1029
343.15 K, x2 = 0.8	–	990
343.15 K, x2 = 0.9	–	939
348.15 K, x2 = 0.1	–	1140
348.15 K, x2 = 0.2	–	1124
348.15 K, x2 = 0.3	–	1109
348.15 K, x2 = 0.4	–	1089
348.15 K, x2 = 0.5	–	1066
348.15 K, x2 = 0.6	–	1042
348.15 K, x2 = 0.7	–	1010
348.15 K, x2 = 0.8	–	971
348.15 K, x2 = 0.9	–	918
353.15 K, x2 = 0.1	–	1123
353.15 K, x2 = 0.2	–	1106
353.15 K, x2 = 0.3	–	1092
353.15 K, x2 = 0.4	–	1072
353.15 K, x2 = 0.5	–	1048
353.15 K, x2 = 0.6	–	1023
353.15 K, x2 = 0.7	–	991
353.15 K, x2 = 0.8	–	951
353.15 K, x2 = 0.9	–	898
358.15 K, x2 = 0.1	–	1106
358.15 K, x2 = 0.2	–	1089
358.15 K, x2 = 0.3	–	1074
358.15 K, x2 = 0.4	–	1054
358.15 K, x2 = 0.5	–	1030
358.15 K, x2 = 0.6	–	1005
358.15 K, x2 = 0.7	–	972
358.15 K, x2 = 0.8	–	932
358.15 K, x2 = 0.9	–	877
363.15 K, x2 = 0.1	–	1088
363.15 K, x2 = 0.2	–	1071
363.15 K, x2 = 0.3	–	1057
363.15 K, x2 = 0.4	–	1036
363.15 K, x2 = 0.5	–	1012
363.15 K, x2 = 0.6	–	986
363.15 K, x2 = 0.7	–	953
363.15 K, x2 = 0.8	–	912
363.15 K, x2 = 0.9	–	857
368.15 K, x2 = 0.1	–	1072
368.15 K, x2 = 0.2	–	1054
368.15 K, x2 = 0.3	–	1039
368.15 K, x2 = 0.4	–	1019
368.15 K, x2 = 0.5	–	995
368.15 K, x2 = 0.6	–	968
368.15 K, x2 = 0.7	–	935
368.15 K, x2 = 0.8	–	893
368.15 K, x2 = 0.9	–	837
373.15 K, x2 = 0.1	–	1055
373.15 K, x2 = 0.2	–	1037
373.15 K, x2 = 0.3	–	1022
373.15 K, x2 = 0.4	–	1002
373.15 K, x2 = 0.5	–	977
373.15 K, x2 = 0.6	–	950
373.15 K, x2 = 0.7	–	916
373.15 K, x2 = 0.8	–	874
373.15 K, x2 = 0.9	–	816
